Results on five molecules are retold here after patent publication US10087229B2, “Peptide compound” (TAKEDA PHARMACEUTICAL COMPANY LIMITED, priority 2013, dated 2018).

Assay [1] has as its system Diet-induced obesity (DIO) male C57BL/6J mice. The experiment in a line: 2-weeks continuous subcutaneous administration study in DIO mice (anti-obesity activity). In kind it is in vivo, mouse. To be noted: 1 nmol/kg/day, subcutaneous Alzet pump, 2 weeks after start of administration; rate of weight loss, control group regarded as 0%. Here is the method:
2-Weeks Continuous Subcutaneous Administration Study in DIO Mice
The anti-obesity activity of a test compound was examined by the method described below.
Diet-induced obesity (DIO) mice were prepared by feeding male C57BL/6J mice with high-fat diet (D12451: Research Diets, Inc.). The test compound was dissolved in a solvent (50% DMSO) so that sustained release would occur at 1 nmol/kg/day, and the solution was filled in the Alzet Pump (DURECT Corporation, model: 1002). The pump thus filled with the solution to be administered was immersed in physiological saline for priming, and then used. The pump was embedded by the following method. Each male DIO-C57BL/6J mouse at 35-37 weeks of age (20-26° C., allowed to take food and water ad libitum; 12-hour bright-12-hour dark cycle) was anesthetized; the skin in the upper back thereof was incised, and the above-mentioned pump was embedded subcutaneously; the incision was sutured. After weighing, this mouse was returned to the rearing cage (reared alone), and given previously weighed food; the body weight was measured every 1 to 3 days after the start of administration. The anti-obesity activity of each test compound was evaluated on the basis of the rate of weight loss 2 weeks after the start of administration, with the rate of weight loss in a control group receiving administration of the solvent alone regarded as 0%.

The subject of a further assay is male C57BL/6J mouse. Put plainly: 2-days continuous subcutaneous administration test (feeding suppressive activity). In kind it is in vivo. The conditions noted are these: 10 nmol/kg/day, subcutaneous Alzet pump, 2-days cumulative food consumption, control (solvent alone) = 0%. Here is the method: 2-Days Continuous Subcutaneous Administration Test
The feeding suppressive activity of a test compound was examined by the method described below.
The test compound was dissolved in a solvent (50% DMSO) so that sustained release would occur at 10 nmol/kg/day, and the solution was filled in the Alzet Pump (DURECT Corporation, model: 1003D). The pump thus filled with the solution to be administered was immersed in physiological saline for priming, and then used. The pump was embedded by the following method. Each male C57BL/6J mouse at 8-9 weeks of age (20-26° C., allowed to take food and water ad libitum; 12-hour bright-12-hour dark cycle) was anesthetized; the skin in the upper back thereof was incised, and the above-mentioned pump was embedded subcutaneously; the incision was sutured. After weighing, this mouse was returned to the rearing cage (reared alone), and given previously weighed food; food consumption as of 2 days after the start of administration was measured. The food consumption was calculated by subtracting the amount of remaining food from the weight of the food given on the day of the start of administration. When the food consumption of a control group receiving administration of the solvent alone was regarded as a suppression rate of 0%, the feeding suppressive activity of each test compound was evaluated on the basis of 2-days cumulative food consumption after the start of administration. The food intake suppression rate (%) of the test compound was defined as (Food consumption of the control group−Food consumption of the test compound-administered group)/Food consumption of the control group×100.

Square brackets hold non-standard residues; d marks the D form. Peptide text beside a SMILES is read from it. αMeF = C[C@](N)(Cc1ccccc1)C(=O)O; 4Pal = N[C@@H](Cc1ccncc1)C(=O)O; Aib = CC(C)(N)C(=O)O

For the molecule `CC(C)C[C@H](NC(=O)[C@H](CC(C)C)NC(=O)[C@H](Cc1c[nH]c2ccccc12)NC(=O)[C@H](CCCCN)NC(=O)[C@@H](NC(=O)[C@H](Cc1ccccc1)NC(=O)[C@H](CCC(=O)O)NC(=O)[C@H](C)NC(=O)[C@H](CCC(N)=O)NC(=O)[C@H](C)NC(=O)[C@H](CCC(N)=O)NC(=O)[C@H](CCCCN)NC(=O)[C@H](CC(=O)O)NC(=O)[C@H](CC(C)C)NC(=O)[C@H](Cc1ccc(O)cc1)NC(=O)[C@H](CCCCN)NC(=O)C(C)(C)NC(=O)[C@H](Cc1ccc(O)cc1)NC(=O)[C@H](CC(=O)O)NC(=O)[C@H](CO)NC(=O)[C@@H](NC(=O)[C@](C)(Cc1ccccc1)NC(=O)[C@@H](NC(=O)CNC(=O)[C@H](CCC(=O)O)NC(=O)C(C)(C)NC(=O)[C@@H](N)Cc1ccc(O)cc1)[C@@H](C)O)[C@@H](C)O)C(C)C)C(=O)N[C@@H](CCCCN)C(=O)NCC(=O)NCC(=O)N1CCC[C@H]1C(=O)N[C@@H](CO)C(=O)N[C@@H](CO)C(=O)NCC(=O)N[C@@H](C)C(=O)N1CCC[C@H]1C(=O)N1CCC[C@H]1C(=O)N1CCC[C@H]1C(=O)N[C@@H](CO)C(=O)N[C@@H](CCCCN)C(N)=O` [Example 24] (H-Y[Aib]EGT[αMeF]TSDY[Aib]KYLDKQAQAEFVKWLLKGGPSSGAPPPSK-NH2), in assay [1], the “Change in body weight” value was −11.1. For the same molecule, the “Food intake suppression (%)” value in the assay on male C57BL/6J mouse is given as 54.18%.
The corresponding values for `CC(C)C[C@H](NC(=O)[C@H](CC(C)C)NC(=O)[C@H](Cc1c[nH]c2ccccc12)NC(=O)[C@H](CCCCN)NC(=O)[C@@H](NC(=O)[C@H](Cc1ccccc1)NC(=O)[C@H](CCC(=O)O)NC(=O)[C@H](CCC(N)=O)NC(=O)[C@H](CCC(N)=O)NC(=O)[C@H](C)NC(=O)[C@H](CCC(N)=O)NC(=O)[C@H](CCCCN)NC(=O)[C@H](CC(=O)O)NC(=O)[C@H](CC(C)C)NC(=O)[C@H](Cc1ccc(O)cc1)NC(=O)[C@H](CCCCN)NC(=O)C(C)(C)NC(=O)[C@H](Cc1ccc(O)cc1)NC(=O)[C@H](CC(=O)O)NC(=O)[C@H](CO)NC(=O)[C@@H](NC(=O)[C@](C)(Cc1ccccc1)NC(=O)[C@@H](NC(=O)CNC(=O)[C@H](CCC(=O)O)NC(=O)C(C)(C)NC(=O)[C@@H](N)Cc1ccc(O)cc1)[C@@H](C)O)[C@@H](C)O)C(C)C)C(=O)N[C@@H](CCCCN)C(=O)NCC(=O)NCC(=O)N1CCC[C@H]1C(=O)N[C@@H](CO)C(=O)N[C@@H](CO)C(=O)NCC(=O)N[C@@H](C)C(=O)N1CCC[C@H]1C(=O)N1CCC[C@H]1C(=O)N1CCC[C@H]1C(=O)N[C@@H](CO)C(=O)N[C@@H](CCCCN)C(N)=O` [Example 25] (H-Y[Aib]EGT[αMeF]TSDY[Aib]KYLDKQAQQEFVKWLLKGGPSSGAPPPSK-NH2) are −11.2 and 53.12%.
Consider `CC[C@H](C)[C@H](NC(=O)C(C)(C)NC(=O)[C@H](Cc1ccc(O)cc1)NC(=O)[C@H](CC(=O)O)NC(=O)[C@H](CO)NC(=O)[C@@H](NC(=O)[C@](C)(Cc1ccccc1)NC(=O)[C@@H](NC(=O)CNC(=O)[C@H](CCC(=O)O)NC(=O)C(C)(C)NC(=O)[C@@H](N)Cc1ccc(O)cc1)[C@@H](C)O)[C@@H](C)O)C(=O)NC(C)(C)C(=O)N[C@@H](CC(C)C)C(=O)N[C@@H](CC(=O)O)C(=O)N[C@@H](CCCCN)C(=O)N[C@@H](CCC(N)=O)C(=O)N[C@@H](C)C(=O)N[C@@H](CCC(N)=O)C(=O)N[C@@H](CO)C(=O)N[C@@H](CCC(=O)O)C(=O)N[C@@H](Cc1ccccc1)C(=O)N[C@H](C(=O)N[C@@H](CCCCN)C(=O)N[C@@H](Cc1c[nH]c2ccccc12)C(=O)N[C@@H](CC(C)C)C(=O)N[C@@H](CC(C)C)C(=O)N[C@@H](CCCCN)C(=O)NCC(=O)NCC(=O)N1CCC[C@H]1C(=O)N[C@@H](CO)C(=O)N[C@@H](CO)C(=O)NCC(=O)N[C@@H](C)C(=O)N1CCC[C@H]1C(=O)N1CCC[C@H]1C(=O)N1CCC[C@H]1C(=O)N[C@@H](CO)C(N)=O)C(C)C` [Example 8] (H-Y[Aib]EGT[αMeF]TSDY[Aib]I[Aib]LDKQAQSEFVKWLLKGGPSSGAPPPS-NH2), for which the “Food intake suppression (%)” value in the assay on male C57BL/6J mouse is on record as 48.34%.
Same read-out and setting: for `CC(C)C[C@H](NC(=O)[C@H](CC(C)C)NC(=O)[C@H](Cc1c[nH]c2ccccc12)NC(=O)[C@H](CCCCN)NC(=O)[C@@H](NC(=O)[C@H](Cc1ccccc1)NC(=O)[C@H](CCC(=O)O)NC(=O)[C@H](C)NC(=O)[C@H](CCC(N)=O)NC(=O)[C@H](C)NC(=O)[C@H](CCC(N)=O)NC(=O)[C@H](CCCCN)NC(=O)[C@H](CC(=O)O)NC(=O)[C@H](CC(C)C)NC(=O)C(C)(C)NC(=O)[C@H](Cc1ccncc1)NC(=O)C(C)(C)NC(=O)[C@H](Cc1ccc(O)cc1)NC(=O)[C@H](CC(=O)O)NC(=O)[C@H](CO)NC(=O)[C@@H](NC(=O)[C@](C)(Cc1ccccc1)NC(=O)[C@@H](NC(=O)CNC(=O)[C@H](CCC(=O)O)NC(=O)C(C)(C)NC(=O)[C@@H](N)Cc1ccc(O)cc1)[C@@H](C)O)[C@@H](C)O)C(C)C)C(=O)N[C@@H](CCCCN)C(=O)NCC(=O)NCC(=O)N1CCC[C@H]1C(=O)N[C@@H](CO)C(=O)N[C@@H](CO)C(=O)NCC(=O)N[C@@H](C)C(=O)N1CCC[C@H]1C(=O)N1CCC[C@H]1C(=O)N1CCC[C@H]1C(=O)N[C@@H](CO)C(=O)N[C@@H](CCCCN)C(N)=O` [Example 12] (H-Y[Aib]EGT[αMeF]TSDY[Aib][4Pal][Aib]LDKQAQAEFVKWLLKGGPSSGAPPPSK-NH2) the value was 55.07%; for `CC(C)C[C@H](NC(=O)[C@H](CC(C)C)NC(=O)[C@H](Cc1c[nH]c2ccccc12)NC(=O)[C@H](CCCCN)NC(=O)[C@@H](NC(=O)[C@H](Cc1ccccc1)NC(=O)[C@H](CCC(=O)O)NC(=O)[C@H](C)NC(=O)[C@H](CCC(N)=O)NC(=O)[C@H](C)NC(=O)[C@H](CCC(N)=O)NC(=O)[C@H](CCCCN)NC(=O)[C@H](CC(=O)O)NC(=O)[C@H](CC(C)C)NC(=O)[C@](C)(Cc1ccccc1)NC(=O)[C@H](CCCCN)NC(=O)C(C)(C)NC(=O)[C@H](Cc1ccc(O)cc1)NC(=O)[C@H](CC(=O)O)NC(=O)[C@H](CO)NC(=O)[C@@H](NC(=O)[C@](C)(Cc1ccccc1)NC(=O)[C@@H](NC(=O)CNC(=O)[C@H](CCC(=O)O)NC(=O)C(C)(C)NC(=O)[C@@H](N)Cc1ccc(O)cc1)[C@@H](C)O)[C@@H](C)O)C(C)C)C(=O)N[C@@H](CCCCN)C(=O)NCC(=O)NCC(=O)N1CCC[C@H]1C(=O)N[C@@H](CO)C(=O)N[C@@H](CO)C(=O)NCC(=O)N[C@@H](C)C(=O)N1CCC[C@H]1C(=O)N1CCC[C@H]1C(=O)N1CCC[C@H]1C(=O)N[C@@H](CO)C(=O)N[C@@H](CCCCN)C(N)=O` [Example 15] (H-Y[Aib]EGT[αMeF]TSDY[Aib]K[αMeF]LDKQAQAEFVKWLLKGGPSSGAPPPSK-NH2), 58.80%.
